Assay results: patent US20150148411A1, “COMPOSITIONS AND METHODS FOR DIAGNOSIS AND THERAPY OF DISORDERS RELATED TO ALTERATIONS OF MYH9” (THE ROCKEFELLER UNIVERSITY, priority 2013, published 2015)
Entries after “also recorded” stand apart in the source; their conditions may differ. Where a SMILES comes first, the peptide text is derived from it. The star is where a group is joined. Cbz = O=C(OCc1ccccc1)*

What was measured:
p53 activation = experiment: p53/DNA damage response: p53 immunoblot of doxorubicin-treated primary keratinocytes; format: cell-based, mouse; conditions: for DDR-induced p53 activation (p53 immunoblot): doxorubicin-treated mouse keratinocytes, blebbistatin 4 μM, Y27632 10 μM, latrunculin 2 μM
Protocol: (§1) Western Blot analysis:-Protein blotting was carried out using standard protocols. Briefly, total cell lysates were prepared using RIPA (20 mM Tris-HCl (pH 8.0), 150 mM NaCl 1 mM EDTA, 1mM EGTA, 1% Triton X-100, 0.5% Deoxycorate, 0.1% SDS, 25 mM β-glycerophosphate, 10 mM NaF, 1 mM Na3VO4) supplemented with protease inhibitors (Complete mini, Roche). Blots were blocked with 5% BSA in 1×TBS 0.1% Tween-20 (TBST) for 1 h and incubated with the primary antibody overnight at 4° C. (diluted in TBST according to the manufacturer's protocol). Primary antibodies were reactive to rabbit anti-Myh9 (1:500, HPA001644, Sigma); phosphorylated (P) Erk1/2 (1:1000, #9101, Cell Signaling), Erk1/2 (1:1000, #9102, Cell Signaling), mouse anti-p53 (1:500, #2524, Cell Signaling), mouse anti-p21(F5) (1:500; sc-6246, Santa Cruz), mouse anti-GAPDH (ab8245, 1:5000; Abcam), mouse anti-Chk2 (1:500, #611570, BD); rabbit anti-P-Chk1 (1:500, #12302P, Cell Signaling); mouse anti-Chk1 (1:1000, 2360S, Cell Signaling); rabbit anti-pSmad2 (Ser465/467) (1:1000, Cell Signaling) and mouse anti-Smad2/3 (610843, 1/500; BD). Blots were washed three times in TBST for 30 min, incubated with HRP-conjugated secondary antibodies (1:2,000; Promega) for lh at room temperature, washed 3 times in TBST for 30 min and visualized using enhanced chemiluminescence (ECL).
(§2) p53/DNA damage responses:_For measurement of DNA damage response and p53 activation primary mouse keratinocytes cells were seeded at a cell density of 100,000 cells per well in a 6-well plate and allowed to grow for 24 h at 3% O2 till importantly 100% confluency. Cells were then treated with doxorubicin ([…]) as previously reported. For experiments using blebbistatin, cells were pretreated with blebbistatin (4 μM final concentration, Sigma B0560) 30 min prior to doxorubicin treatment. The Rock inhibitor Y27632 was used at 10 μM (Sigma Y0503), LatrunculinA was used at 2 μM (Sigma L5163), LeptomycinB was used at 20 nM (Sigma #9676) and the proteasome inhibitor MG132 was used at 3 μM (Sigma M7449).

H2AX, Chk1 and Chk2 = experiment: DDR activation markers by Western blot (γH2AX, phosphorylated Chk1, Chk2); format: cell-based, mouse; conditions: keratinocytes treated with inhibitor
Protocol: as §1, §2

nuclear p53 accumulation = experiment: Nuclear p53 retention in DDR-induced Myh9-knockdown primary keratinocytes (nuclear/cytoplasmic fractions); format: cell-based, mouse; conditions: LeptomycinB 20 nM; for nuclear p53 accumulation/retention after DNA damage: DDR-induced Myh9-knockdown (myosin-IIa-deficient) keratinocytes, blebbistatin 4 μM
Protocol: as §1, §2

HNSCC tumor suppressors = experiment: Pooled in vivo shRNA screen with deep sequencing of tumors; design: species or system mouse; conditions: deep sequencing of 87 lesions
Description: Constructs and RNAi: shRNA constructs for the shRNA pool were obtained from The Broad Institute's Mission TRC-1 mouse library. We tested and used especially the following shRNAs targeting Brcal and Myh9:
Tumor free survival: Control and TβRII-cKO animals were transduced at E9.5 with low-titer shRNA pool targeting orthologs of putative HNSCC genes, including Brcal or Myh9. Scrambled shRNA was used as control. Transductions and knockdowns were confirmed by real-time PCR of mRNAs isolated from newborn skin epidermis or by fluorescence microscopy of a lentiviral reporter fluor, H2B-RFP or H2B-GFP. Animals were assessed biweekly for signs of tumorigenesis, and were considered positive if lesions grew to be larger than 2 mm in diameter.
Deep Sequencing: Sample preparation, preamplification and sequence processing Epidermal and tumor cells were subjected to genomic DNA isolation with the DNeasy Blood & Tissue Kit (Qiagen), and each sample was analyzed for target transduction using real-time PCR. […] Illumina reads were trimmed to the 21 nt hairpin sequence using the FASTX-Toolkit and aligned to the TRC 2.x library with BWA (v 0.6.2)44 using a maximum edit distance of 3. Hits were ranked based on (a) numbers of shRNAs that targeted the gene and scored positively in the screen, with 2 out of 5 shRNAs being considered meaningful; and (b) numbers of tumors enriched for a specific shRNA.

myosin-IIa = experiment: Myosin-IIa protein by immunoblot/immunohistochemistry in transduced mice; format: in vivo, mouse
Protocol: Immunohistochemistry and histological analyses of mouse and human Tumors: Immunohistochemistry was performed as previously described. Briefly, 5-μm sections were cut, stained with H&E or processed for immunohistochemistry/immunofluorescence microscopy. Whole-mount staining of mammary glands was performed as described. For immunoperoxidase staining, paraffin-embedded sections were dehydrated and antigenic epitopes exposed using a 10-mM citrate buffer (pH 6.0) in a pressure cooker. Sections were incubated with the following primary antibodies at 4° C. overnight: rabbit anti-K14 (1:500; E. Fuchs) and rabbit anti-Myh9 (HPA001644, 1:500 Sigma). Primary antibody staining was visualized using peroxidase-conjugated anti-rabbit IgG followed by the DAB substrate kit for peroxidase visualization of secondary antibodies (Vector Laboratories). The following human tissue microarray comprising 48 healthy human skin samples, 30 hyperplastic skin lesions and 206 human skin SCCs as well as from 156 HNSCCs were obtained from US Biomax, Rockeville, Md.: SK244a, SK241, SK242, SK801, SK802, SK2081, SK801b and HN803a, HN811a, HN483.
Western Blot analysis:-Protein blotting was carried out using standard protocols. […]

keratinocytes = experiment: Scratch wound assay on keratinocytes infected in vitro; format: cell-based, mouse; conditions: versus scrambled control
[1] = test system: hair follicle down-growth; experiment: Hair follicle and eyelid phenotype of newborn mice transduced at E9.5; format: in vivo, mouse
Protocol: Materials and Methods. Mice and lentiviral transductions: TβRII foxed mice were crossed to K14-Cre and/or Rosa26YFPlox/stop/lox mice and or K14-CreER mice. Myh9 floxed mice were purchased form EMMA (EM:02572). CD1 mice were from Charles River laboratories. Large-scale production and concentration of lentivirus (6−10^9 cfu/ml) as well as ultrasound-guided lentiviral injection were performed as previously described. As controls for knock-down mice, littermates were infected with a non-targeting scrambled-shRNA, which activates the endogenous microRNA processing pathway but is not known to target any gene. Myh9fl/fl K14CreER mice were injected i.p. with 2 mg tamoxifen (20 mg/ml stock solution in corn oil) for 5 consecutive days at 6-8 weeks of age. DMBA/TPA treatment was performed as previously described. Briefly, 7-8 week old CD1 mice in second telogen were shaved and treated with 400 nmol DMBA in 100 ul aceton one week later. Thereafter, mice were treated with […] TPA in 100 ul aceton wice weekly for 20 weeks. All animals were maintained in an AAALAC-approved animal facility and procedures were performed with protocols approved by IACUC and in accordance with the National Institutes of Health.
Immunohistochemistry and histological analyses of mouse and human Tumors: Immunohistochemistry was performed as previously described. […]

nuclear p53 = experiment: Nuclear p53 immunofluorescence in skin 6 hours after γ-irradiation (5Gy); format: in vivo, mouse; conditions: H2B-RFP labeled infected cells
Description: Immunofluorescence staining The following primary antibodies were used for immunofluorescence: chicken anti-GFP (1:2000; Abcam); guinea-pig anti-K5 (1:500; E. Fuchs); rat anti-K14 (1:500; E. Fuchs); rabbit anti-K6 (1:500; E. Fuchs); rabbit anti-K18 (1:500; E. Fuchs); rat anti-CD104 β4-integrin (346-11A, 1:300; BD); rabbit anti loricin (1:500; E. Fuchs); rabbit anti-Caspase 3 (AF835, 1:1000; R&D), rabbit anti-K10 (PRB-159P, 1:1000; Covance); rabbit anti-Myh9 (HPA001644, 1:500 Sigma); rabbit anti-SMA (ab5694 1:300; Abcam) and rabit anti-p53 (NCL-p53-CMSp, 1:300; Leica). Secondary antibodies were conjugated to Alexa-488, 546, or 647 (1:1000, Life Technologies). Cells and tissues were processed as previously reported, and mounted in Vectashield HardSet mounting medium with DAPI (Life Technologies). […] For quantifications of nuclear p53, images were captured using an inverted Zeiss LSM 780 laser scanning microscope, powered by Zen software. Quantitative image analysis was performed using ImageJ software. To quantify p53 nuclear staining, the following formula was used: CTCF (corrected total cell fluorescence)=whole nucleus signal−(mean background signal (measured in the suprabasal layer)×area of the nucleus measured).

CC(C)C[C@@H](C=O)NC(=O)[C@H](CC(C)C)NC(=O)[C@H](CC(C)C)NC(=O)OCc1ccccc1 [MG132] (Cbz-Leu-Leu-Leu-aldehyde)
p53 protein levels in presence of proteasome inhibitor (p53 activation; Myh9-knockdown and control keratinocytes, DNA damage, MG132 3 μM): rescues Myh9 phenotype; also recorded: comparably induced in both Myh9-knockdown and control keratinocytes

C[C@@H](N)[C@H]1CC[C@H](C(=O)Nc2ccncc2)CC1 [Y27632]
DDR activation (γH2AX, phosphorylated Chk1 and Chk2) (H2AX, Chk1 and Chk2): normal DDR activation

Cc1ccc2c(c1)C(=O)C1(O)CCN(c3ccccc3)C1=N2 (centres unmarked) [blebbistatin]
DDR-induced p53 activation (p53 immunoblot) (p53 activation): phenocopied Myh9 loss of function effects on DDR-induced p53 activation
nuclear p53 accumulation/retention after DNA damage (nuclear p53 accumulation): Nuclear p53 is not retained
DDR activation (γH2AX, phosphorylated Chk1 and Chk2) (H2AX, Chk1 and Chk2): normal DDR activation

COc1cccc2c1C(=O)c1c(O)c3c(c(O)c1C2=O)C[C@@](O)(C(=O)CO)C[C@@H]3O[C@H]1C[C@H](N)[C@H](O)[C@H](C)O1 [doxorubicin]
p53 activation by DNA damage inducer (p53 activation; control primary keratinocytes): led to p53 activation

CCC(=C/[C@H](C)C/C=C/C(C)=C/[C@@H](C)C(=O)[C@@H](C)[C@H](O)[C@@H](C)C/C(C)=C/C(=O)O)/C=C/[C@@H]1OC(=O)C=C[C@@H]1C [leptomycinB]
nuclear p53 accumulation/retention after DNA damage (nuclear p53 accumulation): restored to normal levels
nuclear p53 accumulation/retention after DNA damage (nuclear p53 accumulation; listed as Leptomycin B): rescues the ability of Myh9-deficient cells to retain p53 in the nucleus; also recorded: restores p53 accumulation after DNA damage
transactivation of p53 target genes such as CDKN2 (p21) (nuclear p53 accumulation; DDR-induced myosin-IIa-deficient keratinocytes): restored to normal levels

Brcal-shRNA#560: positive-control shRNA targeting Brca1, 5′-CCCATCATACTTTAATGTGTA-3′ (SEQ ID NO: 1)
shRNA enrichment in lesions relative to initial pool and healthy skin (HNSCC tumor suppressors): highly enriched

Myh9-shRNA #504: shRNA targeting Myh9, 5′-CGGTAAATTCATTCGTATCAA-3′ (SEQ ID NO: 3)
myosin-IIa protein in skin/epidermis (myosin-IIa; mice transduced in utero, examined at birth): loss of myosin-IIa
myosin-IIa immunolabeling in SCC tumor epithelium (myosin-IIa; tumors from TβRII-cKO mice): absent
keratinocyte migration (wound closure) (keratinocytes): enhances keratinocyte migration
hair follicle down-growth [1]: impaired hair follicle down-growth

Myh9-shRNA #507: shRNA targeting Myh9, 5′-GCGATACTACTCAGGGCTTAT-3′ (SEQ ID NO: 6)
nuclear p53 staining in skin (nuclear p53): do not show efficient nuclear p53 staining

latrunculin
DDR-induced p53 activation (p53 immunoblot) (p53 activation): did not display these effects
DDR activation (γH2AX, phosphorylated Chk1 and Chk2) (H2AX, Chk1 and Chk2): normal DDR activation
